Measurements from DBAASP.
In brackets after ≈: the same amount, converted by molar mass. Each block holds one molecule with its values, some of them ahead of it.

What was measured:
Test in all cases: ≥ marks a high value that may be exact or a test limit, other limits are often not marked, values filed in µg/mL are converted to µM
[1] = system: Pseudomonas aeruginosa Ps4
Escherichia coli JW0013 = system: Escherichia coli JW0013
Escherichia coli UB1005 = system: Escherichia coli UB1005
[2] = system: Pseudomonas aeruginosa PAO1
[3] = system: Staphylococcus aureus ATCC 25923
Escherichia coli K-12 = system: Escherichia coli K-12
[4] = system: Pseudomonas aeruginosa ATCC 27853
[5] = system: Staphylococcus aureus ATCC 6538
Bacillus subtilis 168 = system: Bacillus subtilis 168
[6] = system: Candida albicans F7-39/IDE99
Escherichia coli B = system: Escherichia coli B
[7] = system: Micrococcus luteus CCM 144
Pseudomonas aeruginosa = system: Pseudomonas aeruginosa
Staphylococcus aureus = system: Staphylococcus aureus
Streptococcus mutans = system: Streptococcus mutans
[8] = system: Escherichia coli ATCC 25922
[9] = system: Staphylococcus aureus USA 300

SMILES: CC[C@H](C)[C@H](NC(=O)[C@H](CC(N)=O)NC(=O)[C@H](CCCN=C(N)N)NC(=O)[C@H](CCC(N)=O)NC(=O)[C@H](Cc1c[nH]c2ccccc12)NC(=O)[C@@H](N)Cc1ccccc1)C(=O)N[C@@H](CCCN=C(N)N)C(=O)N[C@@H](CCCCN)C(=O)N[C@@H](CC(C)C)C(=O)N[C@@H](CCCN=C(N)N)C(N)=O [FWQRNIRKLR]
MIC [1]: ≥ 176 µM

SMILES: CC[C@H](C)[C@H](NC(=O)[C@H](CC(N)=O)NC(=O)[C@H](CCCN=C(N)N)NC(=O)[C@H](C)NC(=O)[C@H](Cc1c[nH]c2ccccc12)NC(=O)[C@@H](NC(=O)[C@@H](N)Cc1ccccc1)C(C)C)C(=O)N[C@@H](CCCN=C(N)N)C(=O)N[C@@H](CCCCN)C(=O)N[C@H](C(=O)N[C@@H](CCCN=C(N)N)C(N)=O)C(C)C [FVWARNIRKVR]
MIC [1]: ≥ 173 µM

SMILES: NC(=O)[C@H](Cc1ccccc1)NC(=O)[C@H](CCCN=C(N)N)NC(=O)[C@H](Cc1cnc[nH]1)NC(=O)[C@H](Cc1ccccc1)NC(=O)[C@H](Cc1c[nH]c2ccccc12)NC(=O)[C@H](Cc1cnc[nH]1)NC(=O)[C@H](Cc1c[nH]c2ccccc12)NC(=O)[C@H](Cc1ccccc1)NC(=O)[C@H](Cc1ccc(O)cc1)NC(=O)[C@H](Cc1cnc[nH]1)NC(=O)[C@@H](N)Cc1ccccc1 [FHYFWHWFHRF]
MIC (Streptococcus mutans): ≥ 73.1 µM

SMILES: CC[C@H](C)[C@H](NC(=O)[C@H](CCCN=C(N)N)NC(=O)[C@@H](NC(=O)[C@H](CC(N)=O)NC(=O)[C@H](CCCN=C(N)N)NC(=O)CNC(=O)[C@H](Cc1c[nH]c2ccccc12)NC(=O)[C@@H](N)Cc1ccccc1)[C@@H](C)CC)C(=O)N[C@@H](CCCN=C(N)N)C(=O)N[C@@H](CCCN=C(N)N)C(N)=O [FWGRNIRIRR]
MIC [1]: ≥ 182 µM

SMILES: CCC(C)C(NC(=O)C(CC(N)=O)NC(=O)C(CCCN=C(N)N)NC(=O)C(CCC(N)=O)NC(=O)C(Cc1c[nH]c2ccccc12)NC(=O)C(CCC(N)=O)NC(=O)C(N)Cc1ccccc1)C(=O)NC(CCCN=C(N)N)C(=O)NC(CCCCN)C(=O)NC(C(=O)NC(CCCN=C(N)N)C(N)=O)C(C)C (centres undefined) [FQWQRNIRKVR]
MIC [8]: > 163 µM
MIC [1]: ≥ 163 µM

SMILES: CC[C@H](C)[C@H](NC(=O)[C@H](CC(N)=O)NC(=O)[C@H](CCCN=C(N)N)NC(=O)[C@H](CCC(N)=O)NC(=O)[C@H](Cc1c[nH]c2ccccc12)NC(=O)[C@@H](N)Cc1ccccc1)C(=O)N[C@@H](Cc1c[nH]c2ccccc12)C(=O)N[C@@H](CCCN=C(N)N)C(=O)N[C@@H](CCCN=C(N)N)C(N)=O [FWQRNIWRR]
MIC [1]: ≥ 184 µM

SMILES: CC[C@H](C)[C@H](NC(=O)[C@H](CCCCN)NC(=O)[C@H](CCCN=C(N)N)NC(=O)[C@@H](NC(=O)[C@H](CC(N)=O)NC(=O)[C@H](CCCN=C(N)N)NC(=O)[C@H](CCC(N)=O)NC(=O)[C@H](Cc1c[nH]c2ccccc12)NC(=O)[C@@H](N)Cc1ccccc1)[C@@H](C)CC)C(=O)N[C@@H](CCCN=C(N)N)C(N)=O [FWQRNIRKIR]
MIC [1]: ≥ 176 µM

SMILES: CC(C)C[C@H](NC(=O)[C@H](CC(C)C)NC(=O)[C@H](Cc1cnc[nH]1)NC(=O)[C@H](Cc1cnc[nH]1)NC(=O)[C@H](CC(C)C)NC(=O)[C@H](CCCCN)NC(=O)[C@H](CCCCN)NC(=O)[C@H](CC(C)C)NC(=O)[C@H](CC(C)C)NC(=O)[C@H](CCCN=C(N)N)NC(=O)[C@H](CCCN=C(N)N)NC(=O)[C@H](Cc1c[nH]c2ccccc12)NC(=O)[C@H](CCCN=C(N)N)NC(=O)CNC(=O)CNC(=O)CNC(=O)[C@H](Cc1ccccc1)NC(=O)[C@H](CCCN=C(N)N)NC(=O)[C@H](CCCN=C(N)N)NC(=O)[C@H](Cc1ccccc1)NC(=O)[C@H](Cc1c[nH]c2ccccc12)NC(=O)[C@H](CCCCN)NC(=O)[C@H](Cc1c[nH]c2ccccc12)NC(=O)[C@H](Cc1ccccc1)NC(=O)[C@H](CCCCN)NC(=O)[C@H](CCCCN)NC(=O)[C@@H](N)Cc1ccccc1)C(=O)N[C@@H](Cc1cnc[nH]1)C(N)=O [FKKFWKWFRRFGGGRWRRLLKKLHHLLH]
MIC (Streptococcus mutans): 4.28 µM (≈ 16 µg/mL)

The remaining lines, values ahead:

MIC (Escherichia coli JW0013): 0.98 µM (≈ 2.4 µg/mL)
MIC (Escherichia coli UB1005): 2.04 µM (≈ 5 µg/mL)
MIC [2]: 26.1 µM (≈ 64 µg/mL)
MIC [3]: 6.53 µM (≈ 16 µg/mL)
SMILES: CC[C@H](C)[C@H](NC(=O)[C@H](CCCN=C(N)N)NC(=O)[C@H](CCCN=C(N)N)NC(=O)[C@@H]1CCCN1C(=O)[C@@H]1CCCN1C(=O)[C@H](CCCN=C(N)N)NC(=O)[C@H](CCCN=C(N)N)NC(=O)[C@H](CCCN=C(N)N)NC(=O)[C@@H]1CCCN1C(=O)[C@H](CC(C)C)NC(=O)[C@H](Cc1ccc(O)cc1)NC(=O)[C@@H]1CCCN1C(=O)[C@@H]1CCCN1C(=O)[C@H](CCCCN)NC(=O)[C@H](CC(=O)O)NC(=O)[C@@H](N)C(C)C)C(=O)N[C@@H](Cc1ccc(O)cc1)C(=O)N[C@@H](CC(N)=O)C(=O)N[C@@H](CCCN=C(N)N)C(N)=O [VDKPPYLPRRRPPRRIYNR]

MIC [1]: ≥ 161 µM
SMILES: NC(=O)CC[C@H](NC(=O)[C@H](Cc1c[nH]c2ccccc12)NC(=O)[C@@H](N)Cc1ccccc1)C(=O)N[C@@H](CCCN=C(N)N)C(=O)N[C@@H](CC(N)=O)C(=O)N[C@@H](Cc1c[nH]c2ccccc12)C(=O)N[C@@H](CCCN=C(N)N)C(=O)N[C@@H](Cc1ccccc1)C(=O)N[C@@H](CCCN=C(N)N)C(=O)N[C@@H](CCCN=C(N)N)C(N)=O [FWQRNWRFRR]

MIC (Escherichia coli K-12): 3 µM (≈ 8.01 µg/mL)
MIC [4]: > 3 µM
MIC [5]: > 6 µM
SMILES: CC[C@H](C)[C@H](NC(=O)[C@H](CCCCN)NC(=O)[C@H](CC(N)=O)NC(=O)[C@H](CCCN=C(N)N)NC(=O)[C@@H](NC(=O)[C@H](CC(N)=O)NC(=O)[C@H](CCCN=C(N)N)NC(=O)[C@@H](NC(=O)[C@H](CCSC)NC(=O)[C@H](CCCCN)NC(=O)[C@H](CCC(=O)O)NC(=O)[C@@H](NC(=O)[C@H](CCCCN)NC(=O)[C@H](CCCCN)NC(=O)[C@H](Cc1ccccc1)NC(=O)[C@@H](NC(=O)[C@H](CCCCN)NC(=O)[C@H](Cc1c[nH]c2ccccc12)NC(=O)[C@@H](N)CCCCN)C(C)C)[C@@H](C)CC)[C@@H](C)CC)[C@@H](C)CC)C(=O)N[C@@H](C)C(=O)N[C@@H](CCCCN)C(N)=O [KWKVFKKIEKMIRNIRNKIAK]

MIC (Bacillus subtilis 168): ≥ 55.8 µM
MIC [6]: ≥ 50 µM
MIC (Escherichia coli B): ≥ 100 µM
MIC [7]: ≥ 38.8 µM
MIC (Pseudomonas aeruginosa): > 100 µM
MIC (Staphylococcus aureus): > 100 µM
SMILES: CC[C@H](C)[C@H](NC(=O)[C@H](Cc1cnc[nH]1)NC(=O)[C@H](CCCCN)NC(=O)[C@H](CC(C)C)NC(=O)[C@H](CCCCN)NC(=O)[C@H](C)NC(=O)CNC(=O)[C@H](Cc1c[nH]c2ccccc12)NC(=O)[C@H](CC(N)=O)NC(=O)[C@@H](N)CC(C)C)C(=O)N[C@H](C(=O)N[C@@H](CCCCN)C(N)=O)[C@@H](C)CC [LNWGAKLKHIIK]

MIC (Streptococcus mutans): ≥ 198 µM
SMILES: CC(C)C[C@H](NC(=O)[C@H](C)NC(=O)[C@H](CCC(=O)O)NC(=O)[C@H](CCCCN)NC(=O)[C@H](C)NC(=O)[C@H](CCC(=O)O)NC(=O)[C@H](Cc1cnc[nH]1)NC(=O)[C@H](CC(C)C)NC(=O)[C@H](C)NC(=O)[C@@H](N)CCCN=C(N)N)C(=O)N[C@@H](CCCCN)C(=O)O [RALHEAKEALK]

MIC (Escherichia coli K-12): 10 µM (≈ 21 µg/mL)
MIC [9]: ≥ 160 µM
SMILES: CC(C)C[C@H](NC(=O)CN)C(=O)N[C@@H](CCCCN)C(=O)N[C@@H](CCCCN)C(=O)N[C@@H](CC(C)C)C(=O)N[C@@H](CC(C)C)C(=O)NCC(=O)N[C@@H](CCCCN)C(=O)N[C@@H](CC(C)C)C(=O)N[C@@H](CC(C)C)C(=O)N[C@@H](CCCCN)C(=O)N[C@@H](CCCCN)C(=O)N[C@@H](CC(C)C)C(=O)NCC(=O)N[C@@H](CCCCN)C(=O)N[C@@H](CC(C)C)C(=O)N[C@@H](CC(C)C)C(=O)N[C@@H](CC(C)C)C(=O)N[C@@H](CCCCN)C(=O)O [GLKKLLGKLLKKLGKLLLK]

MIC (Bacillus subtilis 168): 1.6 µM (≈ 2.25 µg/mL)
MIC [6]: 6.7 µM (≈ 9.41 µg/mL)
MIC (Escherichia coli B): 3.8 µM (≈ 5.34 µg/mL)
MIC [7]: 2.2 µM (≈ 3.09 µg/mL)
MIC (Pseudomonas aeruginosa): 40 µM (≈ 56.2 µg/mL)
MIC (Staphylococcus aureus): 6.7 µM (≈ 9.41 µg/mL)
SMILES: CC(C)C[C@H](NC(=O)[C@H](C)NC(=O)CNC(=O)[C@H](Cc1c[nH]c2ccccc12)NC(=O)[C@H](CC(N)=O)NC(=O)[C@@H](N)CC(C)C)C(=O)N[C@@H](CC(C)C)C(=O)N[C@@H](CCCCN)C(=O)N[C@@H](Cc1cnc[nH]1)C(=O)N[C@@H](CC(C)C)C(=O)N[C@@H](CC(C)C)C(=O)N[C@@H](CCCCN)C(N)=O [LNWGALLKHLLK]

MIC (Bacillus subtilis 168): ≥ 41.7 µM
MIC [6]: ≥ 100 µM
MIC (Escherichia coli B): ≥ 100 µM
MIC [7]: 30 µM (≈ 42.6 µg/mL)
MIC (Pseudomonas aeruginosa): > 100 µM
MIC (Staphylococcus aureus): > 100 µM
SMILES: CC[C@H](C)[C@H](NC(=O)[C@H](C)NC(=O)CNC(=O)[C@H](Cc1c[nH]c2ccccc12)NC(=O)[C@H](CC(N)=O)NC(=O)[C@@H](N)CC(C)C)C(=O)N[C@@H](CC(C)C)C(=O)N[C@@H](CCCCN)C(=O)N[C@@H](Cc1cnc[nH]1)C(=O)N[C@@H](CCCCN)C(=O)N[C@H](C(=O)N[C@@H](CCCCN)C(N)=O)[C@@H](C)CC [LNWGAILKHKIK]

MIC (Streptococcus mutans): 16.7 µM (≈ 22.6 µg/mL)
SMILES: CC(C)C[C@H](NC(=O)[C@H](CCCCN)NC(=O)[C@H](CCCCN)NC(=O)[C@@H](N)C(C)C)C(=O)N[C@@H](C)C(=O)N[C@@H](CCCCN)C(=O)N[C@@H](CC(C)C)C(=O)N[C@H](C(=O)N[C@@H](CCCN=C(N)N)C(=O)N[C@@H](CCCN=C(N)N)C(=O)N[C@@H](Cc1ccccc1)C(N)=O)C(C)C [VKKLAKLVRRF]
